Test system: female rabbit isolated heart
Test: Monophasic action potential duration (MAPD90) in female rabbit isolated heart
Conditions: ranolazine 0.1-100 μM
Method: Each rabbit was sedated using intramuscular injections of 6 mg/kg xylazine and 40 mg/kg ketamine and then anesthetized using a “cocktail” of ketamine (15 mg/kg)+xylazine (4 mg/kg) in 1.5 ml saline. The ketamine/xylazine cocktail was administered as an i.v. bolus via the marginal ear vein. After anesthesia was confirmed, the thorax was opened and the heart was quickly excised. The heart was placed in a modified Krebs-Henseleit (K-H) physiological saline solution at room temperature. The K-H solution contained (in mmol/L): NaCl 118, KCl 2.8, KH2PO4 1.2, CaCl2 2.5, MgSO4 0.5, pyruvate 2.0, glucose 5.5, Na2EDTA 0.57 and NaHCO3 25. […] CPP was measured (with a Biopac MP 150 pressure transducer, Goleta, Calif.) from a side port of the aortic catheter. […]
Monophasic action potential (MAP) and ECG electrodes from Harvard Apparatus Inc. (Holliston, Mass.) were used to record heart rate (in beats per minute, or bpm), left ventricular MAPs and a bipolar ECG MAP electrodes were pressure contact Ag—AgCl cells attached to a circular holder with springs to keep the electrodes in contact with the LV epicardial surface. […] To ensure that each response to drug had achieved a steady state before a drug concentration was changed, the MAP duration (from onset of depolarization to 100% repolarization) was measured using an on-screen caliper throughout each drug infusion period. […]

SMILES: COc1ccccc1OCC(O)CN1CCN(CC(=O)Nc2c(C)cccc2C)CC1 (racemic) [Ranolazine, (±)-N-(2,6-dimethylphenyl)-4-[2-hydroxy-3-(2-methoxyphenoxy)-propyl]-1-piperazineacetamide]
- Increase in MAPD90: 22±6%
- MAPD90 (from 177±10): 215 ± 6 ms
